The values that follow come from patent US11241406B2, “Compositions and methods for acutley raising nitric oxide levels” (Nature's Sunshine Products, Inc., priority 2015, dated 2022).

The target of series [1] is T1, Myeloperoxidase (MPO) (Homo sapiens, UniProt P05164).
T1 sequence (P05164 49-745): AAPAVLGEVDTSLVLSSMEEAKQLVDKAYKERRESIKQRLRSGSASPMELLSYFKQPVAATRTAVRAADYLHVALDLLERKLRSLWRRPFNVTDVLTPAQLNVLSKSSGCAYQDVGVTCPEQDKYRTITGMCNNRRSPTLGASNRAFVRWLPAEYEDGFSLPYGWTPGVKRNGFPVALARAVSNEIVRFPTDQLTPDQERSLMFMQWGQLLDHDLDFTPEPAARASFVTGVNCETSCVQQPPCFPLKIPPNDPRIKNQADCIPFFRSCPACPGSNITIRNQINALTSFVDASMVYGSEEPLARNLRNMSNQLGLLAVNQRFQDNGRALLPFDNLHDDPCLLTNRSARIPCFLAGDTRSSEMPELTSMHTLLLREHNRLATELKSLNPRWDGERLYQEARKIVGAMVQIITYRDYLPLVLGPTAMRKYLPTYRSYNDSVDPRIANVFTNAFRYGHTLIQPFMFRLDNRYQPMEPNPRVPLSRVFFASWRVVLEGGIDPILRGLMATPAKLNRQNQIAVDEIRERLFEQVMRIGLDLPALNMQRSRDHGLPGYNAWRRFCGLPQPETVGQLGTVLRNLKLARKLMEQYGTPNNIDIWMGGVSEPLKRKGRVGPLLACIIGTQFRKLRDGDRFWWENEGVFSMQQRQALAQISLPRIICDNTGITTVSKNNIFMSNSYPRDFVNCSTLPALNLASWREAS
As to the kind of experiment: Myeloperoxidase Inhibitor Screening Assay (chlorination, hypochlorous acid production). Format: biochemical. Particulars: MPO inhibition; parenthetic values are 95% confidence interval; read-out: Observed IC50 (converted). As to the method:
Formulations 1 and 2, as described in Table 2 above, were tested for their synergistic activity. Additional samples of F1 and F2 were prepared at an initial concentration of 100 mg/mL in an acetone:water (1:1) solution, sonicated in an ice bath for 60 min with vortexing every 10 min, and centrifuged at 3000 rpm at ambient temperature for 5 min. The supernatant liquid was transferred to fresh tubes and centrifuged again at 13,300 rpm at ambient temperature for 10 min. This final supernatant fraction was transferred to fresh tubes and stored at −80° C. until assayed.
The acetone used in this example was obtained through Fisher Chemical Co (Pittsburgh, Pa.) and was the highest purity available. […]
The chlorination assay utilizes the non-fluorescent 2-[6-(4-aminophenoxy)-3-oxo-3H-xanthen-9-yl]-benzoic acid (APF), which is selectively cleaved by hypochlorite to yield the highly fluorescent compound fluorescein. Fluorescein fluorescence was analyzed with an excitation wavelength of 480-495 nm and an emission wavelength of 515-525 nm using a Cytation5 microplate fluorescence reader (Bio Tek Instruments, Winooski, Vt.).
The median inhibitory concentration (IC50) for the inhibition of MPO activity was calculated using CalcuSyn (BIOSOFT, Ferguson, Mo.). […]
Synergy of test components was then quantified using the combination index (CI) parameter. […]

The conditions of series [2]: cited from earlier work.
Series [3] relates to NO biomarker NO2 in saliva. As to the kind of experiment: Salivary NO biomarker (NO2) test strips after dosing of the formulations. The class given is in vivo, human. Particulars: pharmacodynamic studies in this laboratory. The procedure: Over three days, subjects, with normal plasma concentrations of ADMA, were instructed to consume the 10 g of either F1 or F2 with 500 mL of water subsequent to developing the first, pre-dose NO strip. At post-dosing times 30, 60 and 90 minutes, NO strips were again developed for all subjects. One subject was given a 2× dose (20 g) of both formulations over the experimental period. The salivary NO strips, which detect salivary NO2, were nitric Oxide Test Strips (Berkeley Test, Berkeley, Calif.). Color development of NO strips was quantitated using densitometry. Means and 95% confidence intervals were computed using Excel [Microsoft, Redman, Wash.].
The assay of nitrite in saliva and nitrate in Test Formulation 3 (F3) was conducted as described in Example 1. Color development of NO strips was quantitated as described in Example 1. Means and 95% confidence intervals were computed as described in Example 1.
During the morning period, subjects (n=5), with normal plasma concentrations of ADMA, were instructed to consume 5 mL of the F3 with 500 mL of water subsequent to developing the first, pre-dose NO strip. At post-dosing times 30, 60 and 90 minutes, NO strips were again developed for all subjects.

`N=C(N)NCCC[C@H](N)C(=O)O` [L-Arginine]: in series [1], the IC50 (as a rule, the concentration that inhibits the measured activity by half) was 46.4 µM.
`NC(=O)NCCC[C@H](N)C(=O)O` [L-Citrulline]: the IC50 in series [1] was 103 µM.
Take `O=[N+]([O-])O` [NO3]: the bioavailability – broadly, the share of a dose that reaches the circulation, judged against a reference dose that is usually intravenous – in series [2] (dietary NO3) was 100%. Moreover, in series [2] (orally consumed NO3), the half-life in plasma entry was “about 5 hours” and the “time to peak plasma concentration” value is reported as “about 1 hour”. Moreover, in series [3], the “NO3 content that does not produce a detectable increase in NO strip color development” value was “below 12.5 mg NO3/dose”.
